Reference: patent publication US20230248785A1, “METHODS AND COMPOSITIONS FOR TREATING METABOLIC CONDITIONS” (BACTANA CORP., priority 2020, published 2023)

System: C57BL/6J mice on high-fat diet (prediabetes)
Experiment: Fasting blood glucose in prediabetic high-fat diet mice treated with FPZ, metformin or the combination (Example 6)
Assay type: in vivo
Conditions: after 2 weeks of daily oral gavage, 100 mg/kg; control gavaged with water
Method: The study uses 29 C57BL/6J mice, which are placed on a high-fat diet and allowed to develop prediabetes. The mice are fasted for 16 h, and the fasting blood glucose levels are measured to be greater than 105 mg/dL. The mice are divided up into control and treatment groups, and they are treated daily for 7 weeks with either 100 mg/kg FPZ, 100 mg/kg metformin, or a combination of FPZ with metformin, given by oral gavage. Fasting blood glucose are recorded at 2, 4, and 7 weeks of treatment.

Compound: CN(C)C(=N)N=C(N)N [metformin]
- reduction in fasting blood glucose level compared to the control group: 24%
